Assay results reported in patent US20240415819A1, “MACROCYCLIC COMPOUNDS AS PROTEASOME SUBUNIT BETA TYPE-5 INHIBITORS” (Lead Discovery Center GmbH, priority 2021, published 2024).
pIC50: −log10 of the molar value. Like-named read-outs stand apart in the source and are kept apart here.

Columns and labels:
[1] = tested on: Hs 746T (human gastric carcinoma cell line); test: 48 hr CTG viability assay, Hs 746T; format: cell-based; details: Hs746T; for pIC50: 48 hr CTG, read-out: Hs 746T IC50
Summary of the method: (§1)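 Growth inhibition by compound over 48 h; IC50 (nM) derived from duplicate CellTiter-Glo luminescence readings across 0.0015–10 uM.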

[2] = tested on: MM1 S (B lymphoblast cell line); test: 48 hr CTG viability assay, MM1S; format: cell-based; details: Homo sapiens; for pIC50: 48 hr CTG, read-out: MM1S IC50
Summary of the method: as §1

[3] = biological target: T1, β5 subunit of the human immunoproteasome (IPS) (Homo sapiens, UniProt P28062); test: β5 inhibition assay, human immunoproteasome (Suc-LLVY-AMC); format: biochemical; details: IC50 class, Suc-LLVY-AMC substrate
T1 construct: purchased Boston Biochem E-370
Summary of the method: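 β5 activity is read as liberated AMC fluorescence (355/460 nm) after 4 h dark reaction at RT with 22.6 μM Suc-LLVY-AMC, stopped by 1 μM bortezomib. Beforehand, 1 nM human IPS and compound sat 10 min at RT in HEPES pH 7.5 buffer containing NaCl, 0.02% SDS and DTT.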

[4] = tested on: A549 (human lung carcinoma cell line); test: Glo assay of A549 cells (Table 3; ProteasomeGlo plating scheme); format: cell-based; details: Homo sapiens; for pIC50: A549 cells, read-out: PGLo A549
Summary of the method: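 IC50 values (nM) come from a cell-based chymotrypsin-like Proteasome-Glo luminescence assay. Compound exposure ran 105 min at 37° C.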

[5] = tested on: RPMI 8226 (B lymphocyte cell line, multiple myeloma); test: 48 hr CTG viability assay, RPMI 8226; format: cell-based; details: Homo sapiens; for pIC50: RPMI-8226, 48 hr CTG, read-out: RPMI-8226 IC50
Summary of the method: as §1

[6] = biological target: T2, β5 subunit of the human constitutive proteasome (CPS) (Homo sapiens, UniProt P28074); test: β5 inhibition assay, human constitutive proteasome (Suc-LLVY-AMC); format: biochemical; details: IC50 class, Suc-LLVY-AMC substrate
T2 construct: purchased Boston Biochem E-360
Experimental: The enzymatic activity of the β5 subunit of the human constitutive proteasome (CPS) is analyzed. In another assay, which differs from the assay of the human constitutive proteasome only in using the human immunoproteasome (IPS) the enzymatic activity of the β5 subunit of the human immunoproteasome (IPS) is analyzed. […] Inhibition is indicated as IC50 [nM] (“-”=not measured).

pIC50 [1] | pIC50 [2] | pIC50 [3] | pIC50 [4] | pIC50 [5] | pIC50 [6] | Structure (SMILES) | IC50 ([1]; 48 h, read-out: Hs 746T IC50 [nM]) [nM] | IC50 ([2]; 48 h, read-out: MM1S IC50 [nM]) [nM] | IC50 ([4]; A549, read-out: PGLo A549 [nM]) [nM] | IC50 ([5]; RPMI-8226, 48 h, read-out: RPMI-8226 IC50 [nM]) [nM]
6.00 to 6.30 | 6.30 to 7.00 | > 7.00 | > 7.00 | 6.30 to 7.00 | > 7.00 | Cc1ccc2cc1CNC(=O)[C@H](CCc1ccccc1)NC(=O)[C@@H](NC(=O)CCNC1CC3(COC3)C1)CC(=O)N1CCCC(CCO2)C1 (stereo partly drawn) [Compound 720, 3-((2-oxaspiro[3.3]heptan-6-yl)amino)-N-((9S,12S)-5^4-methyl-8,11,14-trioxo-9-phenethyl-4-oxa-7,10-diaza-1(3,1)-piperidina-5(1,3)-benzenacyclotetradecaphane-12-yl)propanamide] |  |  |  | 
> 7.00 | > 7.00 | > 7.00 | > 7.00 | > 7.00 | > 7.00 | Cc1ccc2cc1CNC(=O)[C@H](CCc1ccccc1)NC(=O)[C@@H](NC(=O)CCOC1CC3(COC3)C1)CC(=O)N1CCCC(CCO2)C1 (stereo partly drawn) [Compound 590, 3-((2-oxaspiro[3.3]heptan-6-yl)oxy)-N-((9S,12S)-5^4-methyl-8,11,14-trioxo-9-phenethyl-4-oxa-7,10-diaza-1(3,1)-piperidina-5(1,3)-benzenacyclotetradecaphane-12-yl)propanamide] |  |  |  | 
> 7.00 | > 7.00 | > 7.00 | 6.30 to 7.00 | 6.30 to 7.00 | > 7.00 | Cc1ccc2cc1CNC(=O)[C@H](CCc1ccccc1)NC(=O)[C@@H](NC(=O)C1CC3(CNC3)C1)CC(=O)N1CCCC(CCO2)C1 (stereo partly drawn) [Compound 721, N-((9S,12S)-5^4-methyl-8,11,14-trioxo-9-phenethyl-4-oxa-7,10-diaza-1(3,1)-piperidina-5(1,3)-benzenacyclotetradecaphane-12-yl)-2-azaspiro[3.3]heptane-6-carboxamide] |  |  |  | 
> 7.00 | > 7.00 | > 7.00 | > 7.00 | > 7.00 | > 7.00 | Cc1ccc2cc1CNC(=O)[C@H](CCc1ccccc1)NC(=O)[C@@H](NC(=O)CCOCC1CC3(CCC3)C1)CC(=O)N1CCCC(CCO2)C1 (stereo partly drawn) [Compound 615, N-((9S,12S)-5^4-methyl-8,11,14-trioxo-9-phenethyl-4-oxa-7,10-diaza-1(3,1)-piperidina-5(1,3)-benzenacyclotetradecaphane-12-yl)-3-(spiro[3.3]heptan-2-ylmethoxy)propanamide] |  |  |  | 
> 7.00 | > 7.00 | > 7.00 | > 7.00 | > 7.00 | > 7.00 | CCN1CCC(F)(C(=O)N[C@H]2CC(=O)N3CCCC(CCOc4ccc(C)c(c4)CNC(=O)[C@H](CCc4ccccc4)NC2=O)C3)CC1 (stereo partly drawn) [Compound 592, 1-ethyl-4-fluoro-N-((9S,12S)-5^4-methyl-8,11,14-trioxo-9-phenethyl-4-oxa-7,10-diaza-1(3,1)-piperidina-5(1,3)-benzenacyclotetradecaphane-12-yl)piperidine-4-carboxamide] |  |  |  | 
> 7.00 | > 7.00 | > 7.00 | > 7.00 | > 7.00 | > 7.00 | Cc1ccc2cc1CNC(=O)[C@H](CCc1ccccc1)NC(=O)[C@@H](NC(=O)NC1CCCCC1)CC(=O)N1CCCC(CCO2)C1 (stereo partly drawn) [Compound 593, 1-cyclohexyl-3-((9S,12S)-5^4-methyl-8,11,14-trioxo-9-phenethyl-4-oxa-7,10-diaza-1(3,1)-piperidina-5(1,3)-benzenacyclotetradecaphane-12-yl)urea] |  |  |  | 
6.00 to 6.30 | 6.30 to 7.00 | > 7.00 | > 7.00 | 6.30 to 7.00 | > 7.00 | Cc1ccc2cc1CNC(=O)[C@H](CCc1ccccc1)NC(=O)[C@@H](NC(=O)[C@@H](N)CC(=O)O)CC(=O)N1CCCC(CCO2)C1 (stereo partly drawn) [Compound 719, (3S)-3-amino-4-(((9S,12S)-5^4-methyl-8,11,14-trioxo-9-phenethyl-4-oxa-7,10-diaza-1(3,1)-piperidina-5(1,3)-benzenacyclotetradecaphane-12-yl)amino)-4-oxobutanoic acid] |  |  |  | 

Continued, compound first:

Structure (SMILES) | pIC50 [1] | pIC50 [2] | pIC50 [3] | pIC50 [4] | pIC50 [5] | pIC50 [6] | IC50 ([1]; 48 h, read-out: Hs 746T IC50 [nM]) [nM] | IC50 ([2]; 48 h, read-out: MM1S IC50 [nM]) [nM] | IC50 ([4]; A549, read-out: PGLo A549 [nM]) [nM] | IC50 ([5]; RPMI-8226, 48 h, read-out: RPMI-8226 IC50 [nM]) [nM]
COc1ccccc1CCOCCC(=O)N[C@H]1CC(=O)N2CCCC(CCOc3ccc(C)c(c3)CNC(=O)[C@H](CCc3ccccc3)NC1=O)C2 (stereo partly drawn) [Compound 582, 3-(2-methoxyphenethoxy)-N-((9S,12S)-5^4-methyl-8,11,14-trioxo-9-phenethyl-4-oxa-7,10-diaza-1(3,1)-piperidina-5(1,3)-benzenacyclotetradecaphane-12-yl)propanamide] | > 7.00 | > 7.00 | > 7.00 | > 7.00 | > 7.00 | > 7.00 |  |  |  | 
Cc1ccc2cc1CNC(=O)[C@H](CCc1ccccc1)NC(=O)[C@@H](NC(=O)CCN1CCC3(CC1)COC3)CC(=O)N1CCCC(CCO2)C1 (stereo partly drawn) [Compound 641, N-((9S,12S)-5^4-methyl-8,11,14-trioxo-9-phenethyl-4-oxa-7,10-diaza-1(3,1)-piperidina-5(1,3)-benzenacyclotetradecaphane-12-yl)-3-(2-oxa-7-azaspiro[3.5]nonan-7-yl)propanamide] | > 7.00 | > 7.00 | > 7.00 | > 7.00 | > 7.00 | > 7.00 |  |  |  | 
COc1ccccc1CCCOCCC(=O)N[C@H]1CC(=O)N2CCCC(CCOc3ccc(C)c(c3)CNC(=O)[C@H](CCc3ccccc3)NC1=O)C2 (stereo partly drawn) [Compound 637, 3-(3-(2-methoxyphenyl)propoxy)-N-((9S,12S)-5^4-methyl-8,11,14-trioxo-9-phenethyl-4-oxa-7,10-diaza-1(3,1)-piperidina-5(1,3)-benzenacyclotetradecaphane-12-yl)propanamide] | > 7.00 | > 7.00 | > 7.00 | > 7.00 | > 7.00 | > 7.00 |  |  |  | 
Cc1ccc2cc1CNC(=O)[C@H](CCc1ccccc1)NC(=O)[C@@H](NC(=O)CCOCCCc1ccccc1)CC(=O)N1CCCC(CCO2)C1 (stereo partly drawn) [Compound 612, N-((9S,12S)-5^4-methyl-8,11,14-trioxo-9-phenethyl-4-oxa-7,10-diaza-1(3,1)-piperidina-5(1,3)-benzenacyclotetradecaphane-12-yl)-3-(3-phenylpropoxy)propanamide] | > 7.00 | > 7.00 | > 7.00 | > 7.00 | > 7.00 | > 7.00 |  |  |  | 
Cc1ccc2cc1CNC(=O)[C@H](CCc1ccccc1)NC(=O)[C@@H](NC(=O)CCOCC1CC3CCC1C3)CC(=O)N1CCCC(CCO2)C1 (stereo partly drawn) [Compound 614, 3-(bicyclo[2.2.1]heptan-2-ylmethoxy)-N-((9S,12S)-5^4-methyl-8,11,14-trioxo-9-phenethyl-4-oxa-7,10-diaza-1(3,1)-piperidina-5(1,3)-benzenacyclotetradecaphane-12-yl)propanamide] | > 7.00 | > 7.00 | > 7.00 | > 7.00 | > 7.00 | > 7.00 |  |  |  | 
Cc1ccc2cc1CNC(=O)[C@H](CCc1ccccc1)NC(=O)[C@@H](NC(=O)N1Cc3ccc(N)cc3C1)CC(=O)N1CCCC(CCO2)C1 (stereo partly drawn) [Compound 687, 5-amino-N-((9S,12S)-5^4-methyl-8,11,14-trioxo-9-phenethyl-4-oxa-7,10-diaza-1(3,1)-piperidina-5(1,3)-benzenacyclotetradecaphane-12-yl)isoindoline-2-carboxamide] | > 7.00 | > 7.00 | > 7.00 | > 7.00 | > 7.00 | > 7.00 |  |  |  | 
Cc1ccc2cc1CNC(=O)[C@H](CCc1ccccc1)NC(=O)[C@@H](NC(=O)CCN[C@@H]1C[C@H]3CC[C@@H]1C3)CC(=O)N1CCCC(CCO2)C1 [Compound 695, 3-(((1R,2R,4S)-bicyclo[2.2.1]heptan-2-yl)amino)-N-((9S,12S)-5^4-methyl-8,11,14-trioxo-9-phenethyl-4-oxa-7,10-diaza-1(3,1)-piperidina-5(1,3)-benzenacyclotetradecaphane-12-yl)propanamide] | > 7.00 | > 7.00 | > 7.00 | > 7.00 | > 7.00 | > 7.00 |  |  |  | 
Cc1ccc2cc1CNC(=O)[C@H](CCc1ccccc1)NC(=O)[C@@H](NC(=O)CCN1CCC1)CC(=O)N1CCCC(CCO2)C1 (stereo partly drawn) [Compound 702, 3-(azetidin-1-yl)-N-((9S,12S)-5^4-methyl-8,11,14-trioxo-9-phenethyl-4-oxa-7,10-diaza-1(3,1)-piperidina-5(1,3)-benzenacyclotetradecaphane-12-yl)propanamide] |  |  | > 7.00 |  |  | > 7.00 | < 100 | < 100 | < 100 | < 100
